Literature values in patent publication US6979677B1, “Inhibition of vascular smooth muscle cell proliferation” (priority 1994, dated 2005).

Legend:
[1] = tested on: transplantable murine adenocarcinoma; conditions: HSV-tk transfected adenocarcinoma treated with GCV
[2] = tested on: nondividing rabbit arterial cells
lymphomas = conditions: of 12 mice treated with GCV
cerebral glioma = conditions: rats with HSV-tk-expressing murine fibroblasts, given GCV

SMILES: Nc1nc(O)c2ncn(COC(CO)CO)c2n1 [GCV, ganciclovir]
- tumor response in vivo [1]: regression
- expression of HSV-tk-β-galactosidase construct under GCV treatment [2]: unaffected
- number of mice with complete tumor regression (lymphomas): 11
- glioma regression, microscopically and macroscopically (cerebral glioma): regressed completely
